Data: patent publication US12710419B2, “3D sensors for simultaneous detection of bioelectronic and biomechanical signals in tissue” (UNIVERSITY OF MASSACHUSETTS, priority 2022, dated 2026)

Test system: cardiomyocytes
Assay: Drug tests on cultured cardiomyocytes recorded with 3D nanotransistor biosensor (AP and mechanical signals)
Format: cell-based, human
Settings: for amplitude of AP / amplitude of broad peaks (mechanical signal): after adding drug, 20 μM, electrical recording
Description: Human embryonic stem cell-derived cardiomyocytes (hESC-CMs), which are considered promising in vitro models of cardiac health and disease, were cultured on the device substrate.
As part of experimental trials, drug tests were performed to further reveal the potential of implementing the sensors in pharmacological and pathological studies on cells. Blebbistatin, an inhibitor of myosin essential for motile machinery, was used to suppress cell contraction, as shown in FIG. 3A.
Conversely, lidocaine, a Na+ channel blocker, was added to suppress Na+ influx which contributes mostly to extracellular AP, as shown in FIG. 3D.
A Ca^2+ dysfunctional model was also built by treating the cardiomyocytes with isradipine, a Ca^2+ channel blocker used for treating a wide variety of cardiovascular disorders, as shown in FIG. 3G and its inset.
Cardiomyocytes were differentiated from human embryonic stem cells (hESCs, WAe009-A, H9) and human induced pluripotent stem cells (hiPSCs, generated from human primary T cells using episomal reprogramming) following methods described previously. Briefly, both cell types were maintained in the 60 mm tissue culture dishes coated with 10 ug/mL Matrigel in DMEM-F12 (Gibco™) using Essential 8 medium (Gibco™) and sub-passaged every 3-4 days. During differentiation, cells were seeded in a 12-well plate for 2-3 days until confluency, then replaced with RPMI 1640 medium (Gibco™) plus 1% B27-insulin (Gibco™) and 8 μM CHIR99021 (Tocris Bioscience™) (day 0). After 24 h (day 1), the medium was changed to RPMI 1640 plus 1% B27-insulin. On day 3, day 5, and day 7, the medium was changed to RPMI 1640 plus 1% B27-insulin and 5 μM IWR-1-endo (Cayman Chemical), RPMI 1640 plus 1% B27-insulin, and RPMI 1640 plus 1% B27, respectively. The medium was then replaced with RPMI 1640 plus 1% B27 every other day. […] During days 10-15, cardiomyocytes were ready for experiments. The cells were rinsed with 1×DPBS to remove calcium and inhibit contraction, then incubated with 0.5 mL of 0.5 mM Trypsin-EDTA (Gibco™) for 5 mins in a 37° C. incubator to dissociate into single cells. The EDTA was then aspirated, and the cells were dissociated by gently pipetting with 2 mL RPMI 1640 plus 1% B27 using a 1 ml pipet tip. The cells were transferred to a 15 mL conical tube and centrifuged at 250 g for 3 minutes, then resuspended with 2 mL RPMI 1640 plus 1% B27 supplemented with 10% Fetal Bovine Serum (Gibco™) and 10 μM Y-27632 ROCK inhibitor (Tocris Bioscience™). The device substrate integrated with nanotransistors was sterilized by incubating in 70% ethanol solution (1 h) at room temperature and then UV-treated (1 h). The device was coated with 20 μg/mL Matrigel in RPMI 1640 for 1 h at 37° C. Cells were seeded on the device substrate at the density of 3-5×10^5/cm^2. The cardiomyocytes were maintained using RPMI 1640 plus 1% B27 by changing the medium daily. Electrical recordings were typically performed starting from day 5 after the cell seeding.
All in vitro electrical recordings were carried out at the ambient environment with an Au reference electrode.

[1] = treatment, concentration not given

For `NC[C@H](O)c1ccc(O)c(O)c1` [norepinephrine], which conduction pathway [1] is on record?
The conduction pathway was “alteration of the conduction pathway”.

What about the contractile frequency [1] of the same compound?
The contractile frequency was “increased contractile frequency”.

`Cc1ccc2c(c1)C(=O)C1(O)CCN(c3ccccc3)C1=N2` (centres unmarked) [blebbistatin] was tested. Which “amplitude of AP” value did it give?
The value was “maintained the similar level”.

What about the “amplitude of broad peaks (mechanical signal)” value of the same compound?
Its value is “substantial decrease”.

And the “broad peaks (mechanical signal) after washing out” value (washing out blebbistatin)?
Its value is “restored the broad peaks”.

With `COC(=O)C1=C(C)NC(C)=C(C(=O)OC(C)C)C1c1cccc2nonc12` (centres unmarked) [isradipine] as the compound, how does the AP (isradipine treatment, 20 nM) read?
Its AP is “concurrent decrease”.

What about the mechanical signal (isradipine treatment, 20 nM) of the same compound?
Its mechanical signal is “apparent suppression”.

And the “time to apparent suppression of mechanical signal” value (isradipine treatment, 20 nM)?
The value was “about 100 seconds”.

What about the “mechanical and AP signals after washing out” value (washing out isradipine) of the same compound?
The value was “restored both signals”.

For `Cc1cccc(CCN2CCC(C(=O)c3ccc(NS(C)(=O)=O)cc3)CC2)n1` [E-4031], which “contractile frequency and amplitude” value [1] is on record?
The value was “fluctuations in contractile frequency and amplitude”.

For `CCN(CC)CC(=O)Nc1c(C)cccc1C` [lidocaine], which “amplitude of AP” value is on record?
The value was “prominent suppression”.

And the “amplitude of broad peaks (mechanical signal)” value?
Its value is “no obvious effect”.

What about the AP amplitude (after lidocaine 20 μM, before ~10 nS) of the same compound?
The AP amplitude was ~ 2 nS.

What about the AP duration (after lidocaine 20 μM, before ~19 ms) of the same compound?
Its AP duration is ~ 40 ms.
